According to article PMC6199744, “Development of Chemical Proteomics for the Folateome and Analysis of the Kinetoplastid Folateome” (ACS Infectious Diseases, 2018):
Read-outs that look alike come from different tables or passages of the source.

Key:
Format in all cases: binding
[1] = target: T1, HeLa cell extract proteins (Homo sapiens, UniProt Q9Y6D5)
T1 construct: endogenous in cells; host or cells: HeLa cell extract

[2] = target: T2, HeLa cell extract proteins (Homo sapiens, UniProt P05023)
T2 construct: endogenous in cells; host or cells: HeLa cell extract

[3] = target: T3, HeLa cell extract proteins (Homo sapiens, UniProt Q9UBN7)
T3 construct: endogenous in cells; host or cells: HeLa cell extract
T3 sequence (Q9UBN7 1-1215): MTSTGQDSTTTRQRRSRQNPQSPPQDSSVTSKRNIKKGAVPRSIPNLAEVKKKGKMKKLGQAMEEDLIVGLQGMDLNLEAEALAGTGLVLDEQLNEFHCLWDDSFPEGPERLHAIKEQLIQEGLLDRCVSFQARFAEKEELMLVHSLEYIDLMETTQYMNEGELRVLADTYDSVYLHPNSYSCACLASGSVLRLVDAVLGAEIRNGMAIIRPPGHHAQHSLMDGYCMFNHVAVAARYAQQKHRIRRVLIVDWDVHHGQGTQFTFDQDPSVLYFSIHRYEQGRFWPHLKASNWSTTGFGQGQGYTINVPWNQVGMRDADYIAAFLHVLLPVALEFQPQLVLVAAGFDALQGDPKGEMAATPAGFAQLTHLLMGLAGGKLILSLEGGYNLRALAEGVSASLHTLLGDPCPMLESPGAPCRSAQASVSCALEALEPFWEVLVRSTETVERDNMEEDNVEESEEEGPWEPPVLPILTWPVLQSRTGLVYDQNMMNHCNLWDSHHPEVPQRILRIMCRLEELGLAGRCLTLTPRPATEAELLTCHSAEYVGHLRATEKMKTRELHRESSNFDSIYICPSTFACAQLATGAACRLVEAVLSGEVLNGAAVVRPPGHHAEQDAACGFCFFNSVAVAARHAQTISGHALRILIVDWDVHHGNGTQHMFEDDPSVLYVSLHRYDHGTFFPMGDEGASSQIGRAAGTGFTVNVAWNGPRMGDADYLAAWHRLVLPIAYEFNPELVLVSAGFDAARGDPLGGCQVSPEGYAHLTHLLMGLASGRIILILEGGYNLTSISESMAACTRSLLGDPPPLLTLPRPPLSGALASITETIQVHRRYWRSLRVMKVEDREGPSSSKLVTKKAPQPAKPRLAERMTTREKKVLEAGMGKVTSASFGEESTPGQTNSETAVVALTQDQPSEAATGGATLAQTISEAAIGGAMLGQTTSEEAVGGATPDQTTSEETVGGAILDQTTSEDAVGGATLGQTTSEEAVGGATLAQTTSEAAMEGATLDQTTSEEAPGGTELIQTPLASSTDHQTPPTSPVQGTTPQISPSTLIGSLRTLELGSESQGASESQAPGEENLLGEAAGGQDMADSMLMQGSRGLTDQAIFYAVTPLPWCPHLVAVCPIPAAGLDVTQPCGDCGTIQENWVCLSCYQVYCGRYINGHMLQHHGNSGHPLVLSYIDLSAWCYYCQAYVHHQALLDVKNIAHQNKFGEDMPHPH

[4] = target: T4, HeLa cell extract proteins (Homo sapiens, UniProt Q99613)
T4 construct: endogenous in cells; host or cells: HeLa cell extract
T4 sequence (Q99613 whole entry): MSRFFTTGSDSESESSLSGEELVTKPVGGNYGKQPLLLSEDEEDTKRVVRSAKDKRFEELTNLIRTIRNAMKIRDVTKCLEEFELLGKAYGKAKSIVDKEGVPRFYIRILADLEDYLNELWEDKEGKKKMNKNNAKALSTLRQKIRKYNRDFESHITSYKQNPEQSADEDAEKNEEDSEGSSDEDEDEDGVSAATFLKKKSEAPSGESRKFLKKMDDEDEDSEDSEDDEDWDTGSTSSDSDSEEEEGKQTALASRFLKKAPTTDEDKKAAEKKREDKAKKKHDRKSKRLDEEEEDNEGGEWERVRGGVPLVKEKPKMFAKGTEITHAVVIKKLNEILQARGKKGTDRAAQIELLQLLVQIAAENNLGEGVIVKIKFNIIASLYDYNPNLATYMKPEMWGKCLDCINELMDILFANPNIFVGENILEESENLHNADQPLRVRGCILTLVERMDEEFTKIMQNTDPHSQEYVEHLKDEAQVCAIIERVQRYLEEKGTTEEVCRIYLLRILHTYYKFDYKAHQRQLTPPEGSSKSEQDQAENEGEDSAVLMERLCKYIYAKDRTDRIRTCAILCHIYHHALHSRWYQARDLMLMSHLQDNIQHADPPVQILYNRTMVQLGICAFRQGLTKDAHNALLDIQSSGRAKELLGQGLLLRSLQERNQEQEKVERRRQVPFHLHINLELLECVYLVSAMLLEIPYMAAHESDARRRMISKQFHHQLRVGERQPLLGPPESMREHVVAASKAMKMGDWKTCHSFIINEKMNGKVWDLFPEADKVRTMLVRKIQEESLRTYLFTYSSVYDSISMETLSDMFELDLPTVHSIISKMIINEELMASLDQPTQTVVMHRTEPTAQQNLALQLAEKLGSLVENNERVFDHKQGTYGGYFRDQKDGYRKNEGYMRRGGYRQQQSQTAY

[5] = target: T5, HeLa cell extract proteins (Homo sapiens, UniProt Q9H903)
T5 construct: endogenous in cells; host or cells: HeLa cell extract
T5 sequence (Q9H903 1-347): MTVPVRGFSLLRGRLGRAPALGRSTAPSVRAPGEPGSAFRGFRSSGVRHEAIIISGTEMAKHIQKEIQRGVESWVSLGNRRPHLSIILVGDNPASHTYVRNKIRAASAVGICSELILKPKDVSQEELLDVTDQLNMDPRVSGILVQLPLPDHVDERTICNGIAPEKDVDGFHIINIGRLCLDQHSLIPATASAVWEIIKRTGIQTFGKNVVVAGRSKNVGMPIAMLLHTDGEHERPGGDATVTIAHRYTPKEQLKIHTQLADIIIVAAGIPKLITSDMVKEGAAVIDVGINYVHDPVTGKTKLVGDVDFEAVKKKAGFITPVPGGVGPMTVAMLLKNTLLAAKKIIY

[6] = target: T6, HeLa cell extract proteins (Homo sapiens, UniProt Q96DE0)
T6 construct: endogenous in cells; host or cells: HeLa cell extract
T6 sequence (Q96DE0 whole entry): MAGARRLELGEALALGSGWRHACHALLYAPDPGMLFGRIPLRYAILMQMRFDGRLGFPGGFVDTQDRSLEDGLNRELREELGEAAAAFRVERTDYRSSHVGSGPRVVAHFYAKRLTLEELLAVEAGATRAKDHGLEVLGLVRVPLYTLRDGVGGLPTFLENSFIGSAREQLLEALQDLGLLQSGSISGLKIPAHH

[7] = target: T7, HeLa cell extract proteins (Homo sapiens, UniProt Q5T8D3)
T7 construct: endogenous in cells; host or cells: HeLa cell extract
T7 sequence (Q5T8D3 1-534): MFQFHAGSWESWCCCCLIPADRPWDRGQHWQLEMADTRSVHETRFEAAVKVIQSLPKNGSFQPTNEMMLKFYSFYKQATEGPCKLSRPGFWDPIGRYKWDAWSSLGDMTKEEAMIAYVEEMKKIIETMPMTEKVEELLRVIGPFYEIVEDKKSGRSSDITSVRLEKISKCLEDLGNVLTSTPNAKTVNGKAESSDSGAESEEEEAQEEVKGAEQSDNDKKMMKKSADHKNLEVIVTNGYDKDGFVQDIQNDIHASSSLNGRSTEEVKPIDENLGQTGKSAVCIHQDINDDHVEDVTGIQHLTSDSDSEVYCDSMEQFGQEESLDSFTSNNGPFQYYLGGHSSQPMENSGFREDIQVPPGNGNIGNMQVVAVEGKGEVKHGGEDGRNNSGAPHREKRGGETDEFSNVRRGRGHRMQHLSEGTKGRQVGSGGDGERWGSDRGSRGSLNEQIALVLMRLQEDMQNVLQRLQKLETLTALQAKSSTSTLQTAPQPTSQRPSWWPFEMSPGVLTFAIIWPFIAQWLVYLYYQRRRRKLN

[8] = target: T8, HeLa cell extract proteins (Homo sapiens, UniProt Q9UI12)
T8 construct: endogenous in cells; host or cells: HeLa cell extract
T8 sequence (Q9UI12 whole entry): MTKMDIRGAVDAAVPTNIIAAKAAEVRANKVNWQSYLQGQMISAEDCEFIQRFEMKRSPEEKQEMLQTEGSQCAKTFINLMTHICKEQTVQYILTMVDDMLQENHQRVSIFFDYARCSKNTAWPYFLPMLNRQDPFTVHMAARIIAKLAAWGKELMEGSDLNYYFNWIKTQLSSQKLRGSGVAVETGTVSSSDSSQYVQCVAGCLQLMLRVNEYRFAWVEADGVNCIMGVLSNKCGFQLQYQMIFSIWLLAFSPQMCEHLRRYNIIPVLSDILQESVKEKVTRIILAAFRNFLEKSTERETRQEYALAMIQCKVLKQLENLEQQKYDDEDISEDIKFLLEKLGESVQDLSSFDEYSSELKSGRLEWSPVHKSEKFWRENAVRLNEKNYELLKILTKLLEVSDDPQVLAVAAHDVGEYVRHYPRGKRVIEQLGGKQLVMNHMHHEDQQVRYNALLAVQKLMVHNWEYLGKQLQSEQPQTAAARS

T1 sequence (Q9Y6D5 whole entry): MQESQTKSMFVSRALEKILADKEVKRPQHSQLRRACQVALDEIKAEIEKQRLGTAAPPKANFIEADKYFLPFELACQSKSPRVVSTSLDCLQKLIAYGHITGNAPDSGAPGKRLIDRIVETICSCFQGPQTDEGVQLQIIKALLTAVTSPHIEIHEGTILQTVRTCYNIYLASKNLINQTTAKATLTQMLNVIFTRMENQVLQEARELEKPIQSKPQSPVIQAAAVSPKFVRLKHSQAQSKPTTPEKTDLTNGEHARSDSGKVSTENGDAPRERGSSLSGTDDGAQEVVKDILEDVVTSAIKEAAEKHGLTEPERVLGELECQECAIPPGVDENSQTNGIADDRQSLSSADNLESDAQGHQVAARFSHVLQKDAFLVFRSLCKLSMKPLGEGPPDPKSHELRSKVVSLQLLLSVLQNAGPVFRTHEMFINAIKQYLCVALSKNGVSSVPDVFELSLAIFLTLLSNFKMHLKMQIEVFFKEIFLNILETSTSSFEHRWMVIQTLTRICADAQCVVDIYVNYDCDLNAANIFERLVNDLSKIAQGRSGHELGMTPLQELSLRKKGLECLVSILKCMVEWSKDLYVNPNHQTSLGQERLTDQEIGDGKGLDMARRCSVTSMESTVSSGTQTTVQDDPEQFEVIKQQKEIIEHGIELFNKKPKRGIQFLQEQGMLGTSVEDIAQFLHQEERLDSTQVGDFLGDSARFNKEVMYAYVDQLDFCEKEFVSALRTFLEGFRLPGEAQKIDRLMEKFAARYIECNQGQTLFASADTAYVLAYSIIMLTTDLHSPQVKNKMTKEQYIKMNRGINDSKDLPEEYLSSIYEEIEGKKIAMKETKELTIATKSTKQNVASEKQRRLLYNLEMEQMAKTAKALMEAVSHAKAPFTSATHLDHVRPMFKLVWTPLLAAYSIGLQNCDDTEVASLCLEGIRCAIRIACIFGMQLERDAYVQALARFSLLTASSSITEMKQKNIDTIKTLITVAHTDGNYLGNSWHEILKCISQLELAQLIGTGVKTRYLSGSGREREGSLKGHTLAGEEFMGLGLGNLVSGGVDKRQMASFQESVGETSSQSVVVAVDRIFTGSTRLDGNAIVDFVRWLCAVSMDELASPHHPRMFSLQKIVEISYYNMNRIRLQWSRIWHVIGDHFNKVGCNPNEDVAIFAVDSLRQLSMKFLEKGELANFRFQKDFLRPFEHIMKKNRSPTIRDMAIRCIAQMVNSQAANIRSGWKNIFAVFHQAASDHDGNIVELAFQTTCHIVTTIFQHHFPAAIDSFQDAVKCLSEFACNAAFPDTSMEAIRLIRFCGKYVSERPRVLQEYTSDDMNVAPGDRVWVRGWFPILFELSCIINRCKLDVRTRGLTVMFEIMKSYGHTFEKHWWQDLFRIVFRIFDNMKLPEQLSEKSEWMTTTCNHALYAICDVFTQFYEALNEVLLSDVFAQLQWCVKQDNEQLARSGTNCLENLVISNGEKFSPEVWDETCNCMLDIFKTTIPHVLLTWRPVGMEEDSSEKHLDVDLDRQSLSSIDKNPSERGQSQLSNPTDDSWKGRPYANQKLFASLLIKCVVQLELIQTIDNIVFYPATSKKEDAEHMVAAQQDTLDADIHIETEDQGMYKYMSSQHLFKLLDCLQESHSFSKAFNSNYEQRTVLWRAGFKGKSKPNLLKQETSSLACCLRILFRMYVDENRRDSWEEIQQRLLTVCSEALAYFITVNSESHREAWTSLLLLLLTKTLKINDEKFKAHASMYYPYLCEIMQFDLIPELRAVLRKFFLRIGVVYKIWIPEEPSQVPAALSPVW

| Compound | fold changes relative to vehicle control ([1]; HeLa, protein ARFGEF2) | fold changes relative to vehicle control ([2]; protein ATP1A1, HeLa) | fold changes relative to vehicle control ([3]; captured protein HDAC6, HeLa) | fold changes relative to vehicle control ([4]; protein EIF3C, HeLa) | fold changes relative to vehicle control ([5]; HeLa, protein MTHFD2L) | fold changes relative to vehicle control ([6]; captured protein NUDT16, HeLa) | fold changes relative to vehicle control ([7]; HeLa, protein ACBD5) | fold changes relative to vehicle control ([8]; HeLa, protein ATP6V1H) | fold changes relative to vehicle control ([3]; HeLa, captured protein HDAC6) | fold changes relative to vehicle control ([6]; HeLa, captured protein NUDT16) | fold changes relative to vehicle control ([7]; HeLa, captured protein ACBD5) | fold changes relative to vehicle control [1] | fold changes relative to vehicle control [2] | fold changes relative to vehicle control [3] | fold changes relative to vehicle control [4] | fold changes relative to vehicle control [5] | fold changes relative to vehicle control [6] | fold changes relative to vehicle control [7] | fold changes relative to vehicle control [8] |
| --- | --- | --- | --- | --- | --- | --- | --- | --- | --- | --- | --- | --- | --- | --- | --- | --- | --- | --- | --- |
| Nc1nc2cccc(-c3ccccc3)c2n1Cc1ccc(Cl)c(Cl)c1 [compound 3] | 0.95 | 0.94 | 1.14 | 1.08 | 1.07 | 1.02 | 0.92 | 1.17 |  |  |  |  |  |  |  |  |  |  |  |
| NCCOCCOCC(=O)Nc1nc2ncc(CNc3ccc(C(=O)NC(CCC(=O)O)C(=O)O)cc3)nc2c(=O)[nH]1 (centres unmarked) [compound 6] | 1.15 | 1.05 |  | 1.02 | 0.97 |  |  | 1.13 | 1.06 | 0.84 | 1.09 |  |  |  |  |  |  |  |  |
| Nc1nc2[nH]cc(CCc3ccc(C(=O)N[C@@H](CCC(=O)O)C(=O)O)cc3)c2c(=O)[nH]1 [PTX, pemetrexed] |  |  |  |  |  |  |  |  |  |  |  | 1.01 | 0.96 | 0.98 | 0.94 | 0.9 | 0.92 | 0.88 | 0.99 |
| Nc1nc2c(c(=O)[nH]1)N(C=O)C(CNc1ccc(C(=O)N[C@@H](CCC(=O)O)C(=O)O)cc1)CN2 (some centres unmarked) [LEU, leucovorin] | 1.01 | 0.76 |  | 1.02 | 0.9 |  |  | 1.04 | 1.02 | 0.93 | 1.01 |  |  |  |  |  |  |  |  |
| CCCCCCOc1ccc(Cc2cnc(N)nc2N)cc1 [compound 1] | 1.04 | 0.73 | 0.95 | 1.1 | 0.3 | 0.62 | 1.13 | 1.24 |  |  |  |  |  |  |  |  |  |  |  |
| NCCCNc1ccc(C(=O)NC(CCC(=O)O)C(=O)O)cc1 (centres unmarked) [compound 7] | 1.17 | 0.92 |  | 0.88 | 1 |  |  | 1.01 | 1.02 | 1.02 | 1.03 |  |  |  |  |  |  |  |  |
| CCCCCCOc1cccc(Cc2cnc(N)nc2N)c1 [compound 2] | 1.11 | 1.25 | 1.1 | 1.19 | 0.89 | 0.93 | 1.13 | 1.21 |  |  |  |  |  |  |  |  |  |  |  |
